From ChEMBL document CHEMBL1124142, “N6-[2-(3,5-dimethoxyphenyl)-2-(2-methylphenyl)ethyl]adenosine and its uronamide derivatives. Novel adenosine agonists with both high affinity and high selectivity for the adenosine A2 receptor” (J Med Chem, 1988)

Legend:
Adenosine receptor A1 = biological target: T1, Adenosine receptor A1 (Rattus norvegicus, UniProt P25099); assay: biochemical
T1 sequence (P25099 whole entry): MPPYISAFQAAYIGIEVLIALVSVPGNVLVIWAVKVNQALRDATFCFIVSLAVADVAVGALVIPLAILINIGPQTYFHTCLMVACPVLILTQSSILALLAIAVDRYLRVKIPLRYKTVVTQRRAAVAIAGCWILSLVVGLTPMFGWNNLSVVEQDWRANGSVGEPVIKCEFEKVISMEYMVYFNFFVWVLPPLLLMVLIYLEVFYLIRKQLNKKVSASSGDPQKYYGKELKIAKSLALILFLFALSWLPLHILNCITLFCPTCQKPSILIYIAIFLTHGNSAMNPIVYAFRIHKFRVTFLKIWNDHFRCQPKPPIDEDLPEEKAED
Description: Binding affinity at adenosine A1 receptor from rat brain membranes by [3H]N6-cyclohexyladenosine displacement.

Adenosine A2 receptor [1] = biological target: T2, Adenosine A2 receptor (Rattus norvegicus, UniProt P29276+P30543)
Adenosine A2 receptor [2] = biological target: T2, Adenosine A2 receptor; assay: Binding affinity at adenosine A2 receptor from rat striatal membranes by [3H]NECA displacement.

## Cc1cccc(C)c1C(CNc1ncnc2c1ncn2C1O[C@H](CO)[C@@H](O)[C@H]1O)c1ccccc1 (some centres not stated)
Adenosine receptor A1
  Ki: 0.229 µM
Adenosine A2 receptor [1]
  Ki: 0.062 µM

## COc1cc(OC)cc(C(CNc2ncnc3c2ncn3[C@@H]2O[C@H](CO)[C@@H](O)[C@H]2O)c2ccccc2C)c1 (single isomer, unassigned)
Adenosine receptor A1
  Ki: 0.118 µM
Adenosine A2 receptor [1]
  Ki: 0.0031 µM

## OC[C@H]1O[C@@H](n2cnc3c(NCc4cccc5ccccc45)ncnc32)[C@H](O)[C@@H]1O
Adenosine A2 receptor [1]
  Ki: 0.0094 µM

## COc1cc(OC)cc(C(CNc2ncnc3c2ncn3C2O[C@H](CO)[C@@H](O)[C@H]2O)c2ccccc2)c1 (some centres not stated)
Adenosine receptor A1
  Ki: 0.0302 µM
Adenosine A2 receptor [1]
  Ki: 0.0061 µM

## COc1cc(OC)cc(C(CNc2ncnc3c2ncn3[C@@H]2O[C@H](CO)[C@@H](O)[C@H]2O)c2ccccc2C)c1 (stereo in doubt; 16)
Adenosine receptor A1
  Ki: 0.142 µM
Adenosine A2 receptor [1]
  Ki: 0.0044 µM

## Nc1nc(Nc2ccccc2)nc2c1ncn2[C@@H]1O[C@H](CO)[C@@H](O)[C@H]1O
Adenosine A2 receptor [1]
  Ki: 0.116 µM

## OC[C@H]1OC(n2cnc3c(NCC(c4ccccc4)c4c(Cl)cccc4Cl)ncnc32)[C@H](O)[C@@H]1O (some centres not stated)
Adenosine receptor A1
  Ki: 0.061 µM
Adenosine A2 receptor [1]
  Ki: 0.019 µM

## CCNC(=O)[C@H]1OC(n2cnc3c(NCC(c4cc(OC)cc(OC)c4)c4ccccc4C)ncnc32)[C@H](O)[C@@H]1O (some centres not stated)
Adenosine receptor A1
  Ki: 0.207 µM
Adenosine A2 receptor [2]
  Ki: 0.0056 µM

## Cc1cccc(C(CNc2ncnc3c2ncn3C2O[C@H](CO)[C@@H](O)[C@H]2O)c2cccc(C)c2)c1 (some centres not stated)
Adenosine receptor A1
  Ki: 0.0093 µM
Adenosine A2 receptor [1]
  Ki: 0.0188 µM

## OC[C@H]1OC(n2cnc3c(NCC(c4cccc(Cl)c4)c4cccc(Cl)c4)ncnc32)[C@H](O)[C@@H]1O (some centres not stated)
Adenosine receptor A1
  Ki: 0.0026 µM
Adenosine A2 receptor [1]
  Ki: 0.006 µM

## COc1cc(OC)cc(C(CNc2ncnc3c2ncn3C2O[C@H](C(=O)NC3CC3)[C@@H](O)[C@H]2O)c2ccccc2C)c1 (some centres not stated)
Adenosine receptor A1
  Ki: 0.232 µM
Adenosine A2 receptor [2]
  Ki: 0.0087 µM

## COc1cc(OC)cc(C(CNc2ncnc3c2ncn3[C@@H]2O[C@H](CO)[C@@H](O)[C@H]2O)c2ccccc2C)c1 (single isomer, unassigned; (+))
Adenosine receptor A1
  Ki: 0.188 µM
Adenosine A2 receptor [1]
  Ki: 0.0062 µM

## OC[C@H]1OC(n2cnc3c(NCC(c4ccccc4)c4cc(Cl)cc(Cl)c4)ncnc32)[C@H](O)[C@@H]1O (some centres not stated)
Adenosine receptor A1
  Ki: 0.0184 µM

## COc1cc(OC)cc(C(CNc2ncnc3c2ncn3C2O[C@H](CO)[C@@H](O)[C@H]2O)c2c(C)cccc2C)c1 (some centres not stated)
Adenosine receptor A1
  Ki: 0.14 µM
Adenosine A2 receptor [1]
  Ki: 0.0195 µM

## CNC(=O)[C@H]1OC(n2cnc3c(NCC(c4cc(OC)cc(OC)c4)c4ccccc4C)ncnc32)[C@H](O)[C@@H]1O (some centres not stated)
Adenosine receptor A1
  Ki: 1.01 µM
Adenosine A2 receptor [2]
  Ki: 0.043 µM
